Measurements taken from US5744471A, “Pyridazion quinoline compounds” (Zeneca Limited, priority 1993, dated 1998).
Counter-ions that a name gives are not always drawn. Like-named read-outs stand apart in the source and are kept apart here. One block for each compound: values may come before it.

Assays:
[1] = molecular target: T1, glycine receptor of the NMDA receptor complex (Rattus norvegicus, UniProt P35439); test: [3H]-glycine binding assay (Test A; in-vitro glycine receptor assay); design: species or system rat (male Sprague-Dawley)
T1 construct: Freshly dissected cortices and hippocampi are homogenized in 0.32 M sucrose; from tissue; host or cells: rat cerebral cortex and hippocampus, synaptic membranes (male Sprague-Dawley)
Method: The actions of compounds according to the invention as antagonists at the giycine receptor of the NMDA receptor complex can be shown by one or more standard tests such as the [^3 H]-glycine binding assay (Test A) and by tests in vivo such as ischemia induced by carotid occlusion in the gerbil model (Test B). In addition to these tests, compounds of the invention are assayed in the red nucleus test (Test C) and in the Rat Middle Cerebral Artery test (Test D). These tests confirm that compounds of the invention are NMDA receptor antagonists in vitro and in vivo.
In the [^3 H]-glycine binding assay, neuronal synaptic membranes are prepared from adult (about 250 g) male Sprague-Dawley rats. Freshly dissected cortices and hippocampi are homogenized in 0.32 M sucrose (110 mg/mL). Synaptosomes are isolated by centrifugation (1000 xg, 10 min), the supernatant is pelleted (20,000 xg, 20 min) and resuspended in double-distilled water. The suspension was centrifuged for 20 minutes at 8,000 xg. The resulting supernatant and buffy coat are washed twice (48,000 xg, 10 mins, resuspension in double-deionized water). The final pellet is quickly frozen (dry ice/ethanol bath) under double-deionized water and stored at -70° C.
On the day of the experiment, thawed synaptic membranes are homogenized with a Brinkmann Polytron (tm, Brinkmann Instruments, Westbury, N.Y.) tissue homogenizer in 50 millimolar tris(hydroxymethyl)aminomethane citrate, pH 7.1. The membranes are incubated with 0.04% Sufact-AMPS X100 (tm, Pierce, Rockford, Ill.) in buffer for 20 minutes at 37° C. and washed six times by centrifugation (48,000 xg, 10 min) and resuspended in buffer. The final pellet is homogenized at 200 mg wet weight/mL of the buffer for the binding assay.
For [^3 H]-glycine binding at the N-methyl-D-aspartate receptor, 20 nanomolar [^3 H]-glycine (40-60 Ci/mmol, New England Nuclear, Boston, Mass.) is incubated with the membranes suspended in 50 millimolar tris (hydroxymethyl)aminomethane citrate, pH 7.1 for 30 minutes at 4° C. Glycine, 1 millimolar, is used to define the nonspecific binding. Bound [^3 H]-glycine is isolated from free using a Brandel (Biomedical Research and Development Laboratories, Gaithersburg, Md.) cell harvester for vacuum filtration over glass fiber filters (Whatman GF/B from Brandel, Gaithersburg, Md.) presoaked in 0.025% polyethylenimine. The samples retained on the glass fiber filters are rinsed 3 times with a total of 2.5 mL ice cold buffer. Radioactivity is estimated by liquid scintillation counting. IC50 values are obtained from a least-squares regression of a logit-log transformation of the data. […] The other examples disclosed herein are glycine antagonists.

[2] = tested on: neuronal damage in the hippocampus; test: gerbil ischemic model, bilateral carotid occlusion (Test B); assay type: in vivo, Mongolian gerbils; conditions: 10 mg/Kg ip, 45 minutes before and 5 minutes after occlusion
Method: When testing in vivo using the gerbil ischemic model, adult female Mongolian gerbils (50-70 g) are anesthetized with 2 to 3% halothane. The bilateral common carotid arteries at the neck are exposed and occluded with microaneurysm clips. After 10 min (unless specified), the clips are removed and the blood flow through the carotid arteries is restored and the skin is sutured. Test compounds are administered intraperitoneally both pre- and post-occlusion, for example 45 minutes before and 5 minutes after occlusion of the carotid arteries. Sham-operated animals are treated in the same manner except that the arteries are not clamped. Gross behavioral observations along with motor activity are recorded for 2 hr on the first (24 hr) day following the occlusion. After 4 days, subjects are sacrificed (decapitation), brains are removed, fixed, sectioned and stained with hematoxylin/eosin and cresyl violet.
The brain sections are rated for neuronal damage in the hippocampus using the following rating scale:
1=slight damage (up to 25%)--restricted to CAI/subiculum border
2=moderate damage (up to 50%)--obvious damage, restricted to less than half of CA1 field […]
Sections (7 micron) are evaluated from each brain. […] The average brain damage rating score for each group is recorded, and the damage scores of the drug treated group are compared to the vehicle-treated group using Wilcoxon-Rank Sum test.

[3] = tested on: NMDA-induced excitatory response of red nucleus cells; test: Red Nucleus Test (Test C); assay type: in vivo; conditions: Rattus norvegicus, iv, read-out: ID50 (NMDA-induced excitatory response of red nucleus cells)
Method: The purpose of this test is to determine the effects of intravenously administered glycine antagonists on the NMDA-induced excitatory response of red nucleus cells.
The procedure for the red nucleus test is as follows. Rats are anesthetized with chloral hydrate (400 mg/kg ip) and the femoral vein is catheterized for iv drug administration. Five-barrel micropipettes are stereotaxically positioned in the red nucleus. Typically, three to four of the five barrels are filled as follows: the recording barrel with 2M potassium citrate, the current balancing barrel with 4M NaCl, the drug barrel with 25 mM NMDA, and another drug barrel with 2.5 mM quisqualic acid (QA is only used in selectivity studies). NHDA is iontophoretically applied with an ejection current that is adjusted depending on the sensitivity of each individual red nucleus cell. The NMDA is cycled on and off (usually 30-60 sec. on and 60-120 sec. off) and the firing rate of the cell during each period is recorded. Once the baseline firing rate of the cell has been established, the test drug is administered iv. The effect of the drug on the NMDA-induced excitatory response of the red nucleus cell can be both qualitatively and quantitatively evaluated from the recordings and the raw data accumulated.

[4] = 20 nanomolar [3H]-glycine, rat synaptic membranes, pH 7.1, 4° C., read-out: IC50 in the [3H]-glycine binding assay
[5] = read-out: IC50 in the [3H]Gly test

- IC50 [1, 4]: 40 µM
Structure (SMILES): O=c1c2ccc(Cl)cc2[nH]c2c(=O)n(CCO)nc(O)c12 [Example 1, 7-Chloro-1-hydroxy-3-(2-hydroxyethyl)-3,4,5,10-tetrahydropyridazino[4,5-b]quinoline-4,10-dione]

- IC50 [1, 4]: 0.12 µM
Structure (SMILES): O=c1c2ccc(Cl)cc2[nH]c2c(O)nn(-c3ccc(O)cc3)c(=O)c12 [Example 10, 7-Chloro-4-hydroxy-2-(4-hydroxyphenyl)-1,2,5,10-tetrahydropyridazino[4,5-b]quinoline-1,10-dione]
- neuroprotection (relative to sham-operated control) [2]: over 80%

Structure (SMILES): NC1CCN(O)C1=O (stereo not shown) [HA-966]
- ED50 ([3]; reference agents): 7.9 mg/kg

- activity in the in-vitro glycine receptor assay ([1]; result in words): inactive
Structure (SMILES): CC(C)c1ccc(-n2nc(O)c3c(=O)c4ccc(Cl)cc4[nH]c3c2=O)cc1 [Example 20, 7-Chloro-1-hydroxy-3-(4-isopropylphenyl)-3,4,5,10-tetrahydropyridazino[4,5- ]-quinoline-4,10-dione]

- IC50 [1, 5]: > 100 µM
- activity in the in-vitro glycine receptor assay ([1]; result in words): inactive
Structure (SMILES): O=c1c2ccc(Cl)cc2[nH]c2c(=O)n(-c3ccc(O)cc3)nc(O)c12 [Example 9, 7-Chloro-1-hy droxy-3-(4-hydroxyphenyl)-3,4,5,10-tetrahydropyridazino[4,5-b]quinoline-4,10-dione]

- activity in the in-vitro glycine receptor assay ([1]; result in words): inactive
Structure (SMILES): O=c1c2ccc(Cl)cc2[nH]c2c(=O)n(-c3ccccc3)nc(O)c12 [Example 5, 7-Chloro-1-hydroxy-3-phenyl-3,4,5,10-tetrahydropyridazino[4,5-b]-quinoline-4,10-dione, choline salt]

- IC50 [1, 5]: > 100 µM
- activity in the in-vitro glycine receptor assay ([1]; result in words): inactive
Structure (SMILES): COc1ccc(-n2nc(O)c3c(=O)c4ccc(Cl)cc4[nH]c3c2=O)cc1 [Example 7, 7-Chloro-1-hydroxy-3-(4-methoxyphenyl)-3,4,5,10-tetrahydropyridazino[4,5-b]quinoline-4,10-dione]

Structure (SMILES): O=C1c2ccccc2C(=O)N1CCn1nc(O)c2[nH]c3cc(Cl)ccc3c(=O)c2c1=O [Example 4, 7-Chloro-4-hydroxy-2-(2-phthalimidoethyl)-1,2,5,10-tetrahydropyridazino[4,5-b]quinoline-1,10-dione]
- neuroprotection (relative to sham-operated control) [2]: 35%

- activity in the in-vitro glycine receptor assay ([1]; result in words): inactive
Structure (SMILES): Cc1ccc(-n2nc(O)c3c(=O)c4ccc(Cl)cc4[nH]c3c2=O)cc1 [Example 18, 7-Chloro-1-hydroxy-3-(4-methylphenyl)-3,4,5,10-tetrahydropyridazino[4,5-b]quinoline-4,10-dione]

Structure (SMILES): C/C(=C\C(N)C(=O)O)CP(=O)(O)O (stereo not shown) [CGP 37849]
- ED50 [3]: 1.7 mg/kg

- activity in the in-vitro glycine receptor assay ([1]; result in words): inactive
Structure (SMILES): O=c1c2ccc(Cl)cc2[nH]c2c(=O)n(-c3ccc(Cl)cc3)nc(O)c12 [Example 16, 7-Chloro-1-hydroxy-3-(4-chlorophenyl)-3,4,5,10-tetrahydropyridazino[4,5-b]quinoline-4,10-dione]

Structure (SMILES): CC(=O)OCCn1nc(O)c2c(=O)c3ccc(Cl)cc3[nH]c2c1=O [3-(2-Acetoxyethyl), 3-(2-Acetoxyethyl)7-chloro-4-hydroxy-1,2,5,10-tetrahydropyridazino[4,5-]quinoline-1,10-dione]
- IC50 [1, 5]: > 100 µM

- glycine receptor antagonist activity ([1]; result in words): active as a glycine receptor antagonist
Structure (SMILES): O=C(NCCn1nc(O)c2[nH]c3cc(Cl)ccc3c(=O)c2c1=O)c1ccccc1 [2-ethylbenzamidederivative]
